Data on twelve molecules can be found in US9309242B2, “Substituted pyrido[2,3-b]pyrazines as FGFR kinase inhibitors” (priority 2011, dated 2016).

One data set concerns the target FGFR2 (h) (Homo sapiens, UniProt P21802). The data set is described as follows: FGFR2 (enzymatic assay), TR-FRET. The data set is classed as biochemical. As to conditions: enzymatic assay; read-out: FGFR 2 pIC50 (converted). In short, it runs like this: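 Kinase reaction in 50 mM HEPES pH 7.5 with 6 mM MnCl2, 1 mM DTT, 0.1 mM Na3VO4 and 0.01% Triton-X-100 contained FGFR2 (h) at 150 ng/ml. Biotinylated Flt3 peptide (500 nM) served as substrate with 0.4 μM ATP, compound added in 1% DMSO final.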
A general note: TR-FRET usually uses a lanthanide donor and a delayed reading to cut background.

Data set [1] concerns the target T1, Ba/F3-FGFR1-transfected cells (Homo sapiens, UniProt P11362).
T1 construct: BAF3-FGFR1 (MIN IL3) pIC50; other: minus IL3
The data set is described as follows: Ba/F3-FGFR1 (minus IL3) cellular proliferation assay, Alamar Blue. In kind it is cell-based. Summed up: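 Ba/F3 cells transfected with FGFR1 (20000 cells/well) were plated onto compound in phenol red-free RPMI-1640 with 10% FBS, 2 mM L-glutamine and gentamycin, then kept 24 h at 37 °C, 5% CO2. Alamar Blue (resazurin) was added for 4 h and fluorescence read at ex 540/em 590 nm.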
For orientation: Resazurin is reduced to fluorescent resorufin, in cell work by metabolically active cells.

Data set [2] relates to Ba/F3-FGFR1-transfected cells. Put plainly: Ba/F3-FGFR1 (plus IL3) cellular proliferation assay, counterscreen with 10 ng/ml murine IL3. The data set is classed as cell-based. Particulars: plus IL3 (10 ng/ml murine IL3, counterscreen); read-out: BAF3-FGFR1 (PLUS IL3) pIC50 (converted). Summed up: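 Ba/F3-FGFR1 cells (20000/well) in RPMI-1640 with 10% FBS exposed to compound for 24 h at 37° C., 5% CO2, then Alamar Blue (resazurin) added for 4 h; fluorescence read at ex 540/em 590 nm. Counterscreen run identically with 10 ng/ml murine IL3.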
(The purpose of a counterscreen is to sort out artefacts and off-target activity.)

A word on the melting point: it is the temperature of the solid-liquid transition.

T1 sequence (P11362 whole entry, change not shown): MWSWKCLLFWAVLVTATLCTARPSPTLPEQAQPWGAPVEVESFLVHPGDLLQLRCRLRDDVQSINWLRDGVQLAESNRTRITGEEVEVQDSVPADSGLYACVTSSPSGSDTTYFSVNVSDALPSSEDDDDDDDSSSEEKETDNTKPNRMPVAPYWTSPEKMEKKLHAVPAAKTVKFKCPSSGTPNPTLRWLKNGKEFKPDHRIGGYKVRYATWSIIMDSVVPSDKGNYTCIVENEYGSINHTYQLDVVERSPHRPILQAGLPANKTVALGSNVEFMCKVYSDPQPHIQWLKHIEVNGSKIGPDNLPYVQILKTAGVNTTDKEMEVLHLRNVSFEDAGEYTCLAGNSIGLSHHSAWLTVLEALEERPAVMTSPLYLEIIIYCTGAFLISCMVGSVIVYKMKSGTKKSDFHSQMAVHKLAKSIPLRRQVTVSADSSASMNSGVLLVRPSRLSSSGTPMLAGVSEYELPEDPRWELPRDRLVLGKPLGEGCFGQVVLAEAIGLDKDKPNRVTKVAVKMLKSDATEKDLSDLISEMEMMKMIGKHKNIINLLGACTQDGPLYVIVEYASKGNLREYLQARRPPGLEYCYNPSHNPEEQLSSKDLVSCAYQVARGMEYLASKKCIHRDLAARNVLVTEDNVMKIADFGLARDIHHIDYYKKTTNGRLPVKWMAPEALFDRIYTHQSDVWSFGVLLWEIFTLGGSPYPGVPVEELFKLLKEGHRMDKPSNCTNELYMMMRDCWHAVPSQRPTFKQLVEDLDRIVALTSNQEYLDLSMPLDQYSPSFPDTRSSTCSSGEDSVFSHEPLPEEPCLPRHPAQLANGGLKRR
FGFR2 (h), sequence (P21802 22-821): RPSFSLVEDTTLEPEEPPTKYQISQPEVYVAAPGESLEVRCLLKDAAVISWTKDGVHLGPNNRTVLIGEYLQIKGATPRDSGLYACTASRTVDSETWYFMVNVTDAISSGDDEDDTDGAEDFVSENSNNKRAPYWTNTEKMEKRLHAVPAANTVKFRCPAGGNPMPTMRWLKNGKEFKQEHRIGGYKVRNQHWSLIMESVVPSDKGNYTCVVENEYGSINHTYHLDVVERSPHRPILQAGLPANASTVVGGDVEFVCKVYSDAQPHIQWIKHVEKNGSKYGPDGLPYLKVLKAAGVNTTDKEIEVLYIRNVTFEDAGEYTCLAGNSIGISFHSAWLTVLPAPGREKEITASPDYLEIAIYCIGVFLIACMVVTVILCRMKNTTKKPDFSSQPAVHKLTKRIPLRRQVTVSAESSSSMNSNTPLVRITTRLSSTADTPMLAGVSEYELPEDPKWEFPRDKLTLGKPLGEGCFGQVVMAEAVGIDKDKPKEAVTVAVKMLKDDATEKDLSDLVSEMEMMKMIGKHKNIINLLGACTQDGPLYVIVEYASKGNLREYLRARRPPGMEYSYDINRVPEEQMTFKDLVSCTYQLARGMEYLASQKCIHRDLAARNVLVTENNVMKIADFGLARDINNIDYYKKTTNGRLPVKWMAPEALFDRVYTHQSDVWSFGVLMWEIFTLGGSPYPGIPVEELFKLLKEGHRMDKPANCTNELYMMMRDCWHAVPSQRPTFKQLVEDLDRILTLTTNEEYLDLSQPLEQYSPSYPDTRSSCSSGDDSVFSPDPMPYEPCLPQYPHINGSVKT

`COc1cc(OC)cc(N(Cc2nnc(NCCO)o2)c2ccc3ncc(-c4cnn(C)c4)nc3n2)c1` [Compound 282] came in with a melting point of 104 °C. In addition, the IC50 on FGFR2 (h) was 19.1 nM. Moreover, in data set [1], the “BAF3-FGFR1 (MIN IL3) pIC50” value is listed as under 5. Besides, in data set [2], the IC50 is over 10000 nM.
Consider `COc1cc(OC)c(F)c(N(C)c2ccc3ncc(-c4cnn(C)c4)nc3n2)c1F` (single isomer, unassigned) [Compound 254], for which the melting point came to 210 °C. Moreover, the IC50 at FGFR2 (h) is 1.05 nM. In addition, the “BAF3-FGFR1 (MIN IL3) pIC50” value in data set [1] is listed as 7.67. Besides, the IC50 in data set [2] is over 10000 nM.
Molecule `COc1cc(OC)c(F)c(/N=c2\ccc3ncc(-c4cnn(C)c4)nc3n2C)c1F` (single isomer, unassigned) [Compound 255] displayed a melting point of 199 °C. Further, the IC50 at FGFR2 (h) was 0.776 nM. For the same molecule, the “BAF3-FGFR1 (MIN IL3) pIC50” value in data set [1] is 7.93. In addition, in data set [2], the IC50 was over 10000 nM.
The corresponding values for `CNCCn1ccnc1CN(c1ccc2ncc(-c3cnn(C)c3)nc2n1)c1cc(OC)cc(OC)c1F` [Compound 289] are 92 °C, 8.51 nM, 6.66 and over 10000 nM.
With `CNC(=O)c1cc(F)cc(N(Cc2ncc[nH]2)c2ccc3ncc(-c4cnn(C)c4)nc3n2)c1` [Compound 261], the melting point amounted to 180 °C. In addition, the IC50 on FGFR2 (h) was about 2.82 nM. Further, the “BAF3-FGFR1 (MIN IL3) pIC50” value in data set [1] amounted to 7.61. The IC50 in data set [2] is over 10000 nM.
Molecule `COc1cc(OC)c(F)c(N(CCS(C)(=O)=O)c2ccc3ncc(-c4cnn(CCS(C)(=O)=O)c4)nc3n2)c1` [Compound 266] displayed a melting point of 180 °C. The IC50 at FGFR2 (h) is 2.24 nM. The “BAF3-FGFR1 (MIN IL3) pIC50” value in data set [1] is 6.29. In data set [2], the IC50 was over 10000 nM.
The corresponding values for `COc1cc(OC)c(F)c(/N=c2\ccc3ncc(-c4cnn(C)c4)nc3n2CC2CC2)c1F` (single isomer, unassigned) [Compound 267] are 195 °C, 4.27 nM, 7.98 and over 10000 nM.
With `COc1cc(/N=c2\ccc3ncc(-c4cnn(C)c4)nc3n2CC2CC(O)C(=O)N2)c(F)c(OC)c1` (stereo not shown) [Compound 270], the IC50 is 2.09 nM at FGFR2 (h) and over 10000 nM in data set [2]. The “BAF3-FGFR1 (MIN IL3) pIC50” value in data set [1] stood at 7.12.
In turn, `COc1cc(OC)c(F)c(N(CC(O)COC(C)C)c2ccc3ncc(-c4cnn(CC(O)COC(C)C)c4)nc3n2)c1` (single isomer, unassigned) [Compound 252] displayed a melting point of 60 °C. Besides, at FGFR2 (h), the IC50 was 5.37 nM. Besides, the “BAF3-FGFR1 (MIN IL3) pIC50” value in data set [1] was 7.14. Moreover, in data set [2], the IC50 is over 10000 nM.
As for `COc1cc(OC)c(F)c(N(CC(=O)N2CCNCC2)c2ccc3ncc(-c4cnn(C)c4)nc3n2)c1` [Compound 262], the figures for the IC50 (on FGFR2 (h); in data set [2]) were 7.24 nM and over 10000 nM, respectively. Also, the “BAF3-FGFR1 (MIN IL3) pIC50” value in data set [1] is listed as 6.51.
For the molecule `COc1cc(OC)cc(N(CCS(C)(=O)=O)c2ccc3ncc(-c4cnn(CCS(C)(=O)=O)c4)nc3n2)c1` [Compound 275], the melting point is 172 °C. On FGFR2 (h), the IC50 is 3.47 nM. For the same molecule, the “BAF3-FGFR1 (MIN IL3) pIC50” value in data set [1] is given as 5.64. Moreover, the IC50 in data set [2] was over 10000 nM.
Take `COCC(O)Cn1/c(=N/c2cc(OC)cc(OC)c2F)ccc2ncc(-c3cnn(C)c3)nc21` (single isomer, unassigned) [Compound 60]: the melting point was 114 °C. On FGFR2 (h), the IC50 is 1 nM. In addition, in data set [1], the “BAF3-FGFR1 (MIN IL3) pIC50” value amounted to 8.43. Also, the IC50 in data set [2] was over 10000 nM.
